Two compounds from patent US20250144250A1, “PH-SENSITIVE FLUOROPHORES” (The General Hospital Corporation, priority 2022, published 2025) can be followed below.

Molecules are shown by their SMILES.

For this assay, the system named is peritoneal dissemination of ID8 ovarian cancer. As to the kind of experiment: Intraoperative NIR imaging in mouse model of peritoneal dissemination of ovarian cancer. Format: in vivo, mice. Particulars: for TBR (tumor to background ratio): against normal pancreas. As for the experimental part:
Intraoperative NIR imaging: Seven-week-old female C57BL/6 mice were purchased from the Jackson Laboratory (Bar Harbor, ME) and housed in an AAALAC-certified facility at Massachusetts General Hospital (MGH). All animal procedures were performed in accordance with the Public Health Service Policy on Humane Care of Laboratory Animals and approved by the MGH IACUC (protocol #2016N000136). To establish a murine model of peritoneal dissemination of ovarian cancer, mice were injected intraperitoneally with 5×10^6 cells in 100 μL saline. In this model, macroscopic metastatic intraperitoneal nodules appear reproducibly at approximately 90 d. To perform NIR fluorescence imaging, mice were fed chlorophyll-free mouse chow (VWR International) at least 5 d prior to imaging to minimize autofluorescence. For in vivo imaging of ovarian cancer, animals were anesthetized with 100 mg/kg ketamine and 10 mg/kg xylazine subcutaneously (Webster Veterinary, Fort Devens, MA). Following anesthesia, a midline incision was made to expose the abdominal cavity. To evaluate in vivo tumor targetability of the NIR fluorophores, mice were intraperitoneally injected with 20 nmol of ovarian cancer-targeted NIR fluorophores dissolved in 100 μL saline containing 5 wt/v % BSA. The abdominal cavity was opened with a midline incision, and NIR images were obtained over 4 h of the exposed abdominal cavity. For NIR fluorescence imaging, we used a custom-built real-time intraoperative NIR imaging system as described previously. In this study, a 760 nm excitation was used at a fluence rate of 4 mW/cm^2, with white light (400-650 nm; 40,000 lux). Color and NIR fluorescence images were acquired simultaneously with custom software at rates up to 15 Hz over a 10 cm diameter field-of-view (FOV). Pseudo-colored lime green was used for NIR fluorescence in the color-NIR merged images. The imaging system was positioned at a distance of 9 inches from the surgical field. For all real-time intraoperative imaging, a standardized imaging protocol was used during and after the operation. General FOV (5 cm in dia.) was used to include the pancreas, head, duodenum, liver, and kidneys of a mouse, while closeup FOV (3.3 cm in dia.) included the pancreas, head, and duodenum. Color and NIR fluorescence images were taken simultaneously. Real-time fluorescence signal in tumors (Tu) and tumor-to-background ratio (TBR) compared to neighboring tissue was obtained over the period of imaging, and the fluorescence intensity was plotted to evaluate in vivo molecular biodistribution and clearance. All images were obtained using the same exposure time. Mice were euthanized 4 h post-injection with CO2 inhalation, and tumor tissues and the major organs, including the heart, lung, liver, pancreas, spleen, kidney, duodenum, intestine, muscle, and adnexa, were removed for ex vivo imaging and histological examination. NIR signals from resected tissues were imaged using the FLARE imaging system. The TBR was calculated using the same formula, with IT representing the intensity of the tumor tissue and IB representing the signal intensity of the surrounding tissue over the imaging period.
Evaluation of in vivo efficacy of NIR fluorophores for fluorescence-guided surgery (FGS): Having confirmed the pH sensitivity and tumor cell uptake of PH08 in vitro, we next evaluated the in vivo performance of the pH sensing NIR fluorophores in a mouse model of ovarian cancer. […] In this model, approximately 12 week post-peritoneal injection of ID8 cells, numerous nodules were observed on the peritoneum. These small nodules (<1 mm) are extremely difficult to localize and visualize in the surgical field. Thus, this model was suitable to test the performance of this fluorophore. For imaging of ovarian cancer, 20 nmol of PH08 was administered intraperitoneally. The abdominal cavity was then imaged on the custom-built imaging system. […]

Turning to `CCN1/C(=C/C=C2\CCCC(/C=C/C3=[N+](CC)c4ccccc4C3(C)C)=C2N2CCNCC2)C(C)(C)c2ccccc21` [PH08], the “TBR (tumor to background ratio)” value is reported as “+++ (+++, 3-5)”. Moreover, under “20 nmol intraperitoneally”, the “time to clear visualization of small tumors after injection” value is at most 10 min. Moreover, the “TBR against surrounding normal tissues and other major organs” value (20 nmol intraperitoneally, within 10 min of injection) is about 6. Moreover, the “retention / preservation of signals” value (post-topical application) was “at least 4 h”. Under “up to 4 h after injection”, this compound came in with a TBR of over 5.5. Further, where the note is “upon topical application”, the “fluorescence recovery / increase time” value is on record as under 10 min.
In the case of `CCN1/C(=C/C=C2\CCCC(/C=C/C3=[N+](CC)c4ccccc4C3(C)C)=C2c2ccccc2)C(C)(C)c2ccccc21` [PH03, 1-Ethyl-2-((E)-2-((E)-6-(2-((E)-1-ethyl-3,3-dimethylindolin-2-ylidene)ethylidene)-3,4,5,6-tetrahydro-[1,1′-biphenyl]-2-yl)vinyl)-3,3-dimethyl-3H-indol-1-ium iodide], the “TBR (tumor to background ratio)” value is listed as “++ (++, 2-3)”. Also, the TBR in words entry (up to 4 h after administration, compared with PH08) is “smaller TBRs”.
